Experimental data taken from ChEMBL document CHEMBL2021825, “Dimerization of β-tryptase inhibitors, does it work for both basic and neutral P1 groups?” (Bioorg Med Chem Lett, 2012).
Activity calls are given as the source filed them. No cut-off for these calls is given here.

What was measured:
[1] = Inhibition of human recombinant beta-tryptase using chromogenic substrate S-2366
[2] = test system: Tryptase beta-1 (Homo sapiens), Q15661 [A190S]; assay: Inhibition of human recombinant beta-tryptase A190S mutant using chromogenic substrate S-2366
Chain of Tryptase beta-1 (Homo sapiens), Q15661 [A190S] (Q15661 whole entry A190S): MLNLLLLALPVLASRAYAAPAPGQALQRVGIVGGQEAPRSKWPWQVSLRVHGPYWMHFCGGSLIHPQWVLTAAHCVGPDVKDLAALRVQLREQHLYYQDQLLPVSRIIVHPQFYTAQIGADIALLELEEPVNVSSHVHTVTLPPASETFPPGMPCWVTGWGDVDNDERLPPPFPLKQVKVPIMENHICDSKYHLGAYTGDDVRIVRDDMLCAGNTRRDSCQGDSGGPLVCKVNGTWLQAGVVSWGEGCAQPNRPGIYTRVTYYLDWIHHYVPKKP

Homo sapiens = species: Homo sapiens; assay: Inhibition of human recombinant beta-tryptase using chromogenic substrate S-2366 at 30 uM

| Ki [1] | SMILES | also measured |
| --- | --- | --- |
| 2 nM | NCc1cccc(C2CCN(C(=O)c3cccc(CCCCc4cccc(C(=O)N5CCC(c6cccc(CN)c6)CC5)c4)c3)CC2)c1 | – |
| 0.34 nM | NCc1cccc(C2CCN(C(=O)c3cccc(C#CC#Cc4cccc(C(=O)N5CCC(c6cccc(CN)c6)CC5)c4)c3)CC2)c1 | – |
| 0.3 nM | N=C(N)c1cccc(C2CCN(C(=O)c3cccc(CCCCc4cccc(C(=O)N5CCC(c6cccc(C(=N)N)c6)CC5)c4)c3)CC2)c1 | – |
| 3 nM | NCc1cccc(C2CCN(C(=O)c3cccc(-c4ccc5c(c4)NC(c4c[nH]c6cc(-c7cccc(C(=O)N8CCC(c9cccc(CN)c9)CC8)c7)ccc46)C5)c3)CC2)c1 (stereo not drawn) | – |

More lines, now with the values behind:

| SMILES | Ki [1] | also measured |
| --- | --- | --- |
| NCc1cccc(C2CCN(C(=O)c3ccccc3)CC2)c1 | 1900 nM | – |
| N=C(N)c1cccc(C2CCN(C(=O)c3cccc(C#CC#Cc4cccc(C(=O)N5CCC(c6cccc(C(=N)N)c6)CC5)c4)c3)CC2)c1 | 0.29 nM | – |
| Nc1ncnc2cc(CN3CCN(Cc4cc(-c5ccc(Cl)s5)on4)CC3=O)ccc12 | – | inhibition [2]: inactive |
| O=C1CN(Cc2cc(-c3ccc(Cl)s3)on2)CCN1CCCCCCCCCCN1CCN(Cc2cc(-c3ccc(Cl)s3)on2)CC1=O | – | inhibition (Homo sapiens): inactive |
